# Reference: patent US20020098186A1, “Use of endothelin inhibitors for treatment or prevention of fibrotic disorders” (priority 1999, published 2002)
# Experiments:
# [1] = test system: aminoterminal propeptide of procollagen type III (PIIINP); assay: Serum PIIINP radioimmunoassay in BDO rats; format: in vivo, rat; conditions: LU-treated BDO rats, dose-dependent
# Method: Female adult wistar rats, average weight 206±19 g, underwent the following microsurgical procedure under an operating microscope (OPMI 6-2, Zeiss, Germany) (B. Gerling, M. Becker, J. Waldschmidt, D. Schuppan (1996). J. Hepatol. 25:79-84; G. Boigk, L. Stroedter, H. Herbst H, et al. (1997). Hepatology 26:643-639.): 1. midline abdominal incision following anaesthesia with 100 mg/kg ketamine-hydroochloride (Ketanest®, Parke-Davis, Germany) and 10 mg/kg 5,6-dihydro-2-(2,6-xylidino)-4H-1,3-thiazine-hydrochloride (Rompun®, Bayer, Germany); 2. dissection of the common bile duct, insertion of a teflon catheter (Abbocath -T 26 G, venisystems, U.S.A.) and placement of a distal complete and a proximal incomplete ligature with 5-0 silk (Permahand , Ethicon, Germany); 3. retrograde injection of sodium-amidotrizoate (Ethibloc®, Ethicon Germany) at a dose of 0.02 ml/100 g body weight; 4. removal of the catheter, closure of the proximal ligature, scission of the bile duct between the ligatures and wound closure. After bile duct occlusion (BDO), animals received normal chow (Altromin®, Lage, Germany) and were allowed free access to water. […] The following therapeutic groups were formed: 1. BDO and LU at 80 mg/kg/d for 6 weeks (BDO 80/1-6:n=20); 2. […]
# Standard laboratory parameters were measured by our in-hospital clinical chemical department, using an automated analyser (BM/Hitachi 747). […]
# TIMP-1 RNA = assay: Multiprobe RNAse protection assay of liver RNA, TIMP-1; format: in vivo, rat; conditions: BDO rats, LU 80 mg/kg/d for 6 weeks; relative to GAPDH; p<0.05
# Method: Plasmids encoded predescribed regions of the rat procollagen α1 (I) and […] (GAPDH) genes, encompassing 230 bp (Bam HI/Rsal sites) and 102 bp (position 335-437), resp. (44, 45). The rat tissue inhibitor of metalloproteinase-1 (TIMP-1) probe (position 176-439) was prepared by RT-PCR according to the published sequence (J. P. Iredale, R. C. Benyon, M. J. P. Arthur (1996). Hepatology 24:176-184.), cloned into pZErO-1 (Invitrogen, San Diego, Calif., U.S.A.) and confirmed by restriction enzyme analysis. Preparation of riboprobes: The cDNA templates were linearized with appropriate restriction endonucleases. […] Riboprobes were purified by electrophoresis through a denaturing polyacrylamide gel and the radioactivity of eluted probes were measured by liquid scintillation counting. […] Autoradiographic signals were analyzed with the public domain NTH Image Program. The procollagen α1(I) and TIMP-1 RNA signals were normalized to the signal of GAPDH RNA and expressed as relative abundance (arbitrary units). 10 liver samples each of negative controls, of untreated rats with BDO and of rats with BDO that received LU at 80 mg/kg/d were analyzed.
smiles,measurement,setting,value
COc1cc(OC)nc(O[C@H](C(=O)O)C(OC)(c2ccccc2)c2ccccc2)n1 [LU],Lowering of serum PIIINP,[1],20-50%
same,Reduction of TIMP-1 mRNA level,TIMP-1 RNA,55%
